Test results published in patent US12410208B2, “(2-acetamidyl)thio-beta-D-galactopyranoside derivatives” (Idorsia Pharmaceuticals Ltd, priority 2020, dated 2025).
Read-outs that look alike come from different tables or passages of the source.

Legend:
[1] = target: biotinylated human Gal-3 (hGal-3) (Homo sapiens, UniProt P17931); assay: Competitive binding assay: biotinylated hGal-3 binding to microplate-adsorbed asialofetuin (ASF), spectrophotometric
Summary of the method: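 Serially diluted compounds competed with asialofetuin on the plate for biotinylated human Gal-3 during a 3 h incubation at 4° C. Streptavidin-peroxidase with ABTS gave the spectrophotometric signal. IC50 values were averaged over repeat runs.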

human Gal-1 (hGal-1) = human Gal-1 (hGal-1) (Homo sapiens, UniProt P09382); assay: Competitive binding assay: biotinylated hGal-1 binding to microplate-adsorbed asialofetuin (ASF), spectrophotometric; details: hGal-1 binding to asialofetuin; Table 15; R and S epimers of selected Examples also listed; read-out: IC50 (Galectin-1 inhibition)
Summary of the method: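 Spectrophotometric competition readout with ABTS after streptavidin-peroxidase (80 ng/mL, 1 h, 4 °C) detection of bound biotinylated hGal-1.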

[2] = Gal-3 inhibition, Table 4, read-out: IC50
[3] = Table 12, hGal-3, read-out: IC50 (Gal-3 inhibition)

Sequence of biotinylated human Gal-3 (hGal-3) (P17931 whole entry): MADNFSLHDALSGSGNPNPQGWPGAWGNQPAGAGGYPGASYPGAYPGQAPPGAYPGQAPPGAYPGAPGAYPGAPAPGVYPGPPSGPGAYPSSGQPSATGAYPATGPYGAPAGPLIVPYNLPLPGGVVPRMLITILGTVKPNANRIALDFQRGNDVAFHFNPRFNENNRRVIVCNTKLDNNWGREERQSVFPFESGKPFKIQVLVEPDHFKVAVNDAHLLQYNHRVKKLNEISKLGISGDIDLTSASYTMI
Sequence of human Gal-1 (hGal-1) (P09382 whole entry): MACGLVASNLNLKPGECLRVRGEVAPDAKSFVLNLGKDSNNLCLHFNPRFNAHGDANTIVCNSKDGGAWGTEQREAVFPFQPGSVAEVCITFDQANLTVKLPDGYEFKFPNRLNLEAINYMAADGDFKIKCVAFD

| IC50 (human Gal-1 (hGal-1)) [nM] | Structure (SMILES) | other results |
| --- | --- | --- |
| 32300 | O=C([C@H](S[C@@H]1O[C@H](CO)[C@H](O)[C@H](n2cc(-c3cc(F)c(F)c(F)c3)nn2)[C@H]1O)C1(O)CCOCC1)N1CCCCC1 [Example 2.41.208R., (R)-2-(((2S,3R,4S,5R,6R)-3,5-Dihydroxy-6-(hydroxymethyl)-4-(4-(3,4,5-trifluorophenyl)-1H-1,2,3-triazol-1-yl)tetrahydro-2H-pyran-2-yl)thio)-2-(4-hydroxytetrahydro-2H-pyran-4-yl)-1-(piperidin-1-yl)ethan-1-one] | IC50 [1, 2]: 1650 nM |
| 670 | CO[C@@H]1[C@@H](n2cc(-c3cc(F)c(F)c(F)c3)nn2)[C@@H](O)[C@@H](CO)O[C@H]1SC(C(=O)NC1CC(F)(F)C1)C1(O)CCC(F)(F)CC1 (stereo partly drawn) [Example 2.44.253.I., 2-(4,4-Difluoro-1-hydroxycyclohexyl)-N-(3,3-difluorocyclobutyl)-2-(((2S,3R,4S,5R,6R)-5-hydroxy-6-(hydroxymethyl)-3-methoxy-4-(4-(3,4,5-trifluorophenyl)-1H-1,2,3-triazol-1-yl)tetrahydro-2H-pyran-2-yl)thio)acetamide] | IC50 [1, 3]: 160 nM |
| 120 | CO[C@@H]1[C@@H](n2cc(-c3cc(F)c(F)c(F)c3)nn2)[C@@H](O)[C@@H](CO)O[C@H]1SC(C(=O)N(C)CCC(C)(C)C)C1(O)CCC(F)(F)CC1 (stereo partly drawn) [Example 2.44.225.I., 2-(4,4-Difluoro-1-hydroxycyclohexyl)-N-(3,3-dimethylbutyl)-2-(((2S,3R,4S,5R,6R)-5-hydroxy-6-(hydroxymethyl)-3-methoxy-4-(4-(3,4,5-trifluorophenyl)-1H-1,2,3-triazol-1-yl)tetrahydro-2H-pyran-2-yl)thio)-N-methylacetamide] | IC50 [1, 3]: 100 nM |

Continued, compound first:

| Structure (SMILES) | IC50 (human Gal-1 (hGal-1)) [nM] | other results |
| --- | --- | --- |
| O=C(C(S[C@@H]1O[C@H](CO)[C@H](O)[C@H](n2cc(-c3cc(F)c(F)c(F)c3)nn2)[C@H]1O)C1(O)CCC1)N1CCC1 (stereo partly drawn) [Example 2.34.206., 1-(Azetidin-1-yl)-2-(((2S,3R,4S,5R,6R)-3,5-dihydroxy-6-(hydroxymethyl)-4-(4-(3,4,5-trifluorophenyl)-1H-1,2,3-triazol-1-yl)tetrahydro-2H-pyran-2-yl)thio)-2-(1-hydroxycyclobutyl)ethan-1-one] | 2710 | IC50 ([1]; Gal-3 inhibition, Table 5, read-out: IC50): 1200 nM |
| CN(Cc1ccccc1)C(=O)[C@H](S[C@@H]1O[C@H](CO)[C@H](O)[C@H](n2cc(-c3cc(F)c(F)c(F)c3)nn2)[C@H]1O)C1(O)CCOCC1 [Example 2.41.207R., (R)-N-Benzyl-2-(((2S,3R,4S,5R,6R)-3,5-dihydroxy-6-(hydroxymethyl)-4-(4-(3,4,5-trifluorophenyl)-1H-1,2,3-triazol-1-yl)tetrahydro-2H-pyran-2-yl)thio)-2-(4-hydroxytetrahydro-2H-pyran-4-yl)-N-methylacetamide] | 51500 | IC50 [1, 2]: 8230 nM |
| CCN(C)C(=O)[C@@H](S[C@@H]1O[C@H](CO)[C@H](O)[C@H](n2cc(-c3cc(F)c(F)c(F)c3)nn2)[C@H]1O)C(O)(CC)CC [Example 2.32.203S., (S)-2-(((2S,3R,4S,5R,6R)-3,5-Dihydroxy-6-(hydroxymethyl)-4-(4-(3,4,5-trifluorophenyl)-1H-1,2,3-triazol-1-yl)tetrahydro-2H-pyran-2-yl)thio)-N,3-diethyl-3-hydroxy-N-methylpentanamide] | 730 | IC50 ([1]; Table 6, hGal-3, read-out: IC50 (Gal-3 inhibition)): 240 nM |
| CCN(CC)C(=O)C(S[C@@H]1O[C@H](CO)[C@H](O)[C@H](n2cc(-c3cc(F)c(F)c(F)c3)nn2)[C@H]1O)C(C)(C)O (stereo partly drawn) [Example 2.31.202., 2-(((2S,3R,4S,5R,6R)-3,5-Dihydroxy-6-(hydroxymethyl)-4-(4-(3,4,5-trifluorophenyl)-1H-1,2,3-triazol-1-yl)tetrahydro-2H-pyran-2-yl)thio)-N,N-diethyl-3-hydroxy-3-methylbutanamide] | 2770 | IC50 ([1]; Gal-3 inhibition, Table 3, read-out: IC50): 160 nM |
